This is an account of results in patent publication EP0908457B1, “3-(1,2-benzisothiazol- and isoxazol-5-Y1)-2,4(1H,3H)-pyrimidinedione or thione and 3-(1,2-benzisothiazol- and isoxazol-5-y1)-4(3H)-pyrimidinone or thione herbicidal agents” (BASF AKTIENGESELLSCHAFT, priority 1997, dated 1999).

For data set [1], the system named is Cyperus iria. Kind of data set: Preemergence weed control under flooded paddy conditions, CYPIR (Rice Flatsedge). Note: meaning of each grade not given here. The format is in vivo. The following applies: preemergence weeds, flooded paddy, rated three to four weeks after treatment.
For data set [2], the system named is Cyperus serotinus, Rottb. Kind of data set: Preemergence weed control under flooded paddy conditions, CYPSE (Flatsedge). Note: meaning of each grade not given here. The class given is in vivo. The following applies: preemergence weeds, rated three to four weeks after treatment.
For data set [3], the system named is Oryza sativa, (L.) Tebonnet. Kind of data set: Rice tolerance to post-transplant applications under flooded paddy conditions (Example 187), ORYSAT (Rice, Tebonnet). The following applies: rated three to four weeks after treatment.
Data set [4] concerns Echinochloa oryzoides (Ard.) Fritsch. Put plainly: Preemergence weed control under flooded paddy conditions, ECHORC (Watergrass (Calif.)). Note: meaning of each grade not given here. The format is in vivo. The following applies: preemergence weeds, flooded paddy, rated three to four weeks after treatment.
The test system of data set [5] is Sagittaria pygmaea, L. Put plainly: Preemergence weed control under flooded paddy conditions, SAGPY (Arrowhead (Pygmaea)). Note: meaning of each grade not given here. The class given is in vivo. The settings on record: preemergence weeds, flooded paddy, rated three to four weeks after treatment.
The test system of data set [6] is Monochoria vaginalis, Presl. Put plainly: Preemergence weed control under flooded paddy conditions, MOOVA (Monochoria). Note: meaning of each grade not given here. The following applies: preemergence weeds, flooded paddy, rated three to four weeks after treatment. The format is in vivo.

Regarding `C=CC(C)OC(=O)COc1ccc(C)cc1-c1nsc2ccc(-n3c(=O)cc(C(F)(F)F)n(C)c3=O)cc12` (stereo not drawn) [Example 186, 1-Methylallyl {{2-{5-[3,6-dihydro-3-methyl-2,6-dioxo-4-(trifluoromethyl)-1(2H)-pyrimidinyl]-1,2-benzisothiazol-3-yl}-p-tolyl}oxy}acetate], the “herbicidal effect rating, CYPIR” value in data set [1] (0.0315 kg/ha) and in data set [1] (0.0630 kg/ha) was 9.0 in each case. Further, the “herbicidal effect rating, CYPSE” value in data set [2] (0.0315 kg/ha) and in data set [2] (0.0630 kg/ha) was 9.0 each time. The “herbicidal effect rating, ORYSAT (rice tolerance)” value in data set [3] (0.0315 kg/ha) and in data set [3] (0.0630 kg/ha) was 9.0 in each case. For the same compound, the “herbicidal effect rating, ECHORC” value in data set [4] (0.0315 kg/ha) and in data set [4] (0.0630 kg/ha) was 9.0 in each case. Further, the “herbicidal effect rating, SAGPY” value in data set [5] (0.0315 kg/ha) and in data set [5] (0.0630 kg/ha) was 9.0 in each case. In addition, the “herbicidal effect rating, MOOVA” value in data set [6] (0.0315 kg/ha) and in data set [6] (0.0630 kg/ha) was 9.0 throughout.

As for `Cn1c(C(F)(F)F)cc(=O)n(-c2ccc3snc(C(N)=O)c3c2)c1=O` [Example 322, 1,2-Benzisothiazole-3-carboxamide, 5-[3,6-dihydro-3-methyl-2,6-dioxo-4-(trifluoromethyl)-1(2H)-pyrimidinyl]-], the “herbicidal effect rating, CYPIR” value in data set [1] (Rate 0.0320 kg/ha) amounted to 4.0; in data set [1] (Rate 0.0620 kg/ha), 6.0; in data set [1] (Rate 0.1250 kg/ha) it was 7.0; in data set [1] (Rate 0.2500 kg/ha), 9.0. Also, the “herbicidal effect rating, CYPSE” value in data set [2] (Rate 0.0320 kg/ha) turned out to be 5.0; in data set [2] (Rate 0.0620 kg/ha), 5.0; in data set [2] (Rate 0.1250 kg/ha) it was 6.0; in data set [2] (Rate 0.2500 kg/ha) it was 9.0. The “herbicidal effect rating ORYSAT” value in data set [3] (Rate 0.0320 kg/ha) was found to be 5.0; in data set [3] (Rate 0.0620 kg/ha) it was 5.0; in data set [3] (Rate 0.1250 kg/ha) it was 5.0; in data set [3] (Rate 0.2500 kg/ha), 7.0. The “herbicidal effect rating, ECHORC” value in data set [4] (Rate 0.0320 kg/ha), in data set [4] (Rate 0.0620 kg/ha), in data set [4] (Rate 0.1250 kg/ha) and in data set [4] (Rate 0.2500 kg/ha) was 9.0 each time. In addition, the “herbicidal effect rating, SAGPY” value in data set [5] (Rate 0.0320 kg/ha) is reported as 3.0; in data set [5] (Rate 0.0620 kg/ha) it was 3.0; in data set [5] (Rate 0.1250 kg/ha), 3.0; in data set [5] (Rate 0.2500 kg/ha), 9.0. Moreover, the “herbicidal effect rating, MOOVA” value stood at 5.0 in data set [6] (Rate 0.0320 kg/ha), 9.0 in data set [6] (Rate 0.0620 kg/ha), 9.0 in data set [6] (Rate 0.1250 kg/ha) and 9.0 in data set [6] (Rate 0.2500 kg/ha).
